Assay results reported in the supplement of paper PMC10307832.

Experiments:
Assay in all cases: relative viability (nuclei count vs DMSO), 5 days (fraction); higher = more cells survive
AZD5582 + Linsitinib = compound: C[C@@H](C(=O)N[C@@H](C1CCCCC1)C(=O)N2CCC[C@H]2C(=O)N[C@@H]3[C@@H](CC4=CC=CC=C34)OCC#CC#CCO[C@@H]5CC6=CC=CC=C6[C@@H]5NC(=O)[C@@H]7CCCN7C(=O)[C@H](C8CCCCC8)NC(=O)[C@H](C)NC)NC [AZD5582] + C[C@]1(O)C[C@@H](c2nc(-c3ccc4ccc(-c5ccccc5)nc4c3)c3c(N)nccn32)C1 [Linsitinib] (partner 1 µM)
How it was run: (§1)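 Lung cancer cell lines were seeded in 1536-well plates and dosed by pin tool the next day, with either a single drug or a fixed anchor-drug dose combined with five library-drug doses (not always all listed) spaced in √10 steps. Five days later, one step fixed the cells and stained their nuclei (final 0.05% Triton X-100, 1% formaldehyde, 1 ug/ml Hoechst), and nuclei were counted on 4× images. Relative viability is the nuclei count in treated wells divided by the count in vehicle wells, and each value is the median of duplicate plates.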

[1] = compound: Cn1nnc2c(C(N)=O)ncn2c1=O [Temozolomide] + Nc1ncn([C@H]2C[C@H](O)[C@@H](CO)O2)c(=O)n1 [Decitabine] (partner 2 µM)
How it was run: as §1

AZD5582 + Crizotinib = compound: C[C@@H](C(=O)N[C@@H](C1CCCCC1)C(=O)N2CCC[C@H]2C(=O)N[C@@H]3[C@@H](CC4=CC=CC=C34)OCC#CC#CCO[C@@H]5CC6=CC=CC=C6[C@@H]5NC(=O)[C@@H]7CCCN7C(=O)[C@H](C8CCCCC8)NC(=O)[C@H](C)NC)NC [AZD5582] + C[C@@H](Oc1cc(-c2cnn(C3CCNCC3)c2)cnc1N)c1c(Cl)ccc(F)c1Cl [Crizotinib] (partner 1 µM)
How it was run: as §1

[2] = compound: Cn1nnc2c(C(N)=O)ncn2c1=O [Temozolomide] + CC(=O)c1c(C)c2cnc(Nc3ccc(N4CCNCC4)cn3)nc2n(C2CCCC2)c1=O [Palbociclib] (partner 0.5 µM)
How it was run: as §1

Cell Line	relative viability (AZD5582 + Linsitinib; first compound 0.001581 µM)	relative viability (AZD5582 + Linsitinib; first compound 0.005 µM)	relative viability (AZD5582 + Linsitinib; first compound 0.01581 µM)	relative viability (AZD5582 + Linsitinib; first compound 0.05 µM)	relative viability ([1]; first compound 0.2 µM)	relative viability ([1]; first compound 0.6325 µM)	relative viability ([1]; first compound 2 µM)	relative viability ([1]; first compound 6.325 µM)	relative viability ([1]; first compound 20 µM)	relative viability (AZD5582 + Crizotinib; first compound 0.001581 µM)	relative viability (AZD5582 + Crizotinib; first compound 0.005 µM)	relative viability (AZD5582 + Crizotinib; first compound 0.01581 µM)	relative viability (AZD5582 + Crizotinib; first compound 0.05 µM)	relative viability ([2]; first compound 0.2 µM)	relative viability ([2]; first compound 0.6325 µM)	relative viability ([2]; first compound 2 µM)	relative viability ([2]; first compound 6.325 µM)	relative viability ([2]; first compound 20 µM)
HCC-366	0.7	0.754	0.622	0.822	0.297	0.386	0.384	0.304	0.337	0.476	0.517	0.56	0.635	0.449	0.467	0.341	0.396	0.369
HCC-827	0.897	0.968	0.885	0.948	0.228	0.357	0.339	0.34	0.169	0.885	1.02	0.926	0.898	0.461	0.449	0.513	0.517	0.148
HOP-62	0.654	1	0.966	1.09	0.214	0.247	0.226	0.19	0.188	0.781	1.05	1	0.875	0.545	0.488	0.473	0.375	0.447
IA-LM	0.5	0.479	0.64	0.599						0.546	0.63	0.818	0.699					
LC-2-ad	0.916	0.938	0.911	0.97	0.795	0.766	0.775	0.874	0.665	0.457	0.454	0.384	0.391	0.474	0.494	0.512	0.537	0.473
LCLC-97TM1		0.16	0.191	0.148	0.232	0.245	0.223	0.216	0.253		0.269	0.338	0.257	0.272	0.237	0.197	0.231	0.191
LCLC-103H	1.06	1.33	1	1.19	0.779	0.757	0.743	0.764	0.599	1.1	1.08	1.02	0.777	0.503	0.514	0.496	0.608	0.413
LK-2		0.685	0.643	0.795	0.318	0.284	0.263	0.225	0.211	0.225	0.218	0.218	0.24	0.599	0.719	0.601	0.327	0.2
LOU-NH91	0.964	0.924	0.997	1.04	0.699	0.801	0.849	0.815	0.634	0.713	0.746	0.729	0.741	0.585	0.566	0.552	0.557	0.572
